Measured values from ChEMBL document CHEMBL1201862, “PubChem BioAssay data set” (2004).
Where “and” joins values, the source holds several entries; their conditions need not be identical. Identical values can stand only once. Calls of active or inactive are those of the source. Peptide text beside a SMILES is read from it. * marks the point of attachment. Cbz = O=C(OCc1ccccc1)*; CH2Cl = ClC*

What was measured:
[1] = target: T1, Adenosylmethionine-8-amino-7-oxononanoate aminotransferase (Mycobacterium tuberculosis, UniProt P9WQ81); assay: Mycobacterium tuberculosis BioA enzyme inhibitor Measured in Biochemical System Using Plate Reader - 2163-02_Inhibitor_Dose_CherryPick_Activity.; type: functional, Mycobacterium tuberculosis UT205
T1 sequence (P9WQ81 whole entry): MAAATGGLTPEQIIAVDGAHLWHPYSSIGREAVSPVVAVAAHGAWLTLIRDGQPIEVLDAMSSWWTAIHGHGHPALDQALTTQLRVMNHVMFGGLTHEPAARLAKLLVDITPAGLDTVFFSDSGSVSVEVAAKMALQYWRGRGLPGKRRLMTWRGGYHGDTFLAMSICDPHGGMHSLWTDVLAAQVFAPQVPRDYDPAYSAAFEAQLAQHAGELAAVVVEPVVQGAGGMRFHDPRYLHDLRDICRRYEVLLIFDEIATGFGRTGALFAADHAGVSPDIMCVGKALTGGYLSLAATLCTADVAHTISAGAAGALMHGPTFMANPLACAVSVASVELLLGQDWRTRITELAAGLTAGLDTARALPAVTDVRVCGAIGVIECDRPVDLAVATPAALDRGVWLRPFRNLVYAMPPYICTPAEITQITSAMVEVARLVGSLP

[2] = HGIII-sPLA2 enzyme inhibition potency – biochemical, QFRET, IC50, dose response (AID 743457);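 note: green fluorescence rise as the enzyme cleaves BODIPY PC-A2 in liposomes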
[3] = target: T2, Ubiquitin-conjugating enzyme E2 N (Homo sapiens, UniProt P61088); type: functional;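 note: Dose-response confirmation in a TR-FRET assay detecting UBC13-driven polyubiquitin chain formation, inhibition measured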
T2 sequence (P61088 whole entry): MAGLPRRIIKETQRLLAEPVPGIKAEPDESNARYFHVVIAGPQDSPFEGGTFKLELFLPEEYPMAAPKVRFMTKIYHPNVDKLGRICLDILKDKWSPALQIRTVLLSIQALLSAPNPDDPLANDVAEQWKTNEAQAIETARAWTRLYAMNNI

[4] = decrease of insulin promoter-GFP reporter – imaging, high-content screening, mouse beta cells (AID 1628); type: functional; conditions: MIN6
[5] = MIN6 cell viability loss – mouse insulinoma, cytotoxicity control, dose response (AID 2122); type: functional;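 note: confirmatory high-throughput counterscreen run to flag cytotoxic compounds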
Vero [6] = assay: cells; type: functional; conditions: Chlorocebus sabaeus
Vero [7] = assay: cells; type: functional, cell-based; conditions: Chlorocebus sabaeus
[8] = target: T3, Microphthalmia-associated transcription factor (Homo sapiens, UniProt O75030); assay: reducers of TRPM1 reporter luminescence, concentration series – cell-based, SK-MEL-5, cherry-picked, set 3, MITF inhibitor project, dose response (AID 493073); type: functional;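 note: SK-MEL-5 melanoma cells with luciferase driven by the MITF target TRPM1 promoter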
T3 sequence (O75030 whole entry): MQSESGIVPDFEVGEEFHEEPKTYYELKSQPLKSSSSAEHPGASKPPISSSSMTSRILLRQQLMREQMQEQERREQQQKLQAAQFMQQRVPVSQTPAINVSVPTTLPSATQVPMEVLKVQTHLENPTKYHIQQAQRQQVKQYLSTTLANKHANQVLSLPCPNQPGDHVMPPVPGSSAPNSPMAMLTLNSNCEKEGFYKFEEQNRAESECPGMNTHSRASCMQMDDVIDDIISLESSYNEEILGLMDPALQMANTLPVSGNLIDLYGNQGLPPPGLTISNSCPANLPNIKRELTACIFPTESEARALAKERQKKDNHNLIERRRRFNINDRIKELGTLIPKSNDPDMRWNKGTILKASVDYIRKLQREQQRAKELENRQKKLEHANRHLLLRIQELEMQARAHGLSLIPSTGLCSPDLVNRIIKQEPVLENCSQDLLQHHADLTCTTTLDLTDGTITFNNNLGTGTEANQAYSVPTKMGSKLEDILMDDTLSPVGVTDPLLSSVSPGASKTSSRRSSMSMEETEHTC

[9] = target: 5-hydroxytryptamine receptor 2A (Mus musculus, UniProt P35363); type: functional, cell-based;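 note: CHO-K1 cells with tagged receptor and beta-arrestin; agonist potency measured as compound-induced activation of the receptor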
Mu-type opioid receptor = Mu-type opioid receptor (Homo sapiens, UniProt P35372); type: functional, cell-based;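 note: U2OS cells with beta-arrestin recruitment to OPRM1 by beta-gal complementation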
[10] = general mammalian cell viability loss – inhibitor set, cherry-pick, set 2, cytotoxicity control for miR-122 modulator project, dose response (AID 720697); type: functional, cell-based
Streptococcus = assay: GAS UMAA2166 growth inhibition – luminescence, BacTiterGlo, counter-screen for streptokinase expression inhibitor project, dose response (AID 1915); type: functional, organism-based;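 note: potency for reduction of bacterial viability or growth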
[11] = system: Streptococcus sp. 'group A'; assay: Streptococcus pyogenes SK(-)GAS viability under kanamycin – luminescence, BacTiterGlo, confirmation, counter-screen for streptokinase expression inhibitor project, dose response (AID 1900); type: functional, organism-based
cells [12] = type: functional, cell-based
cells [13] = type: functional, cell-based; remark: listed apart in the source
[14] = target: T4, Trace amine-associated receptor 1 (Homo sapiens, UniProt Q96RJ0); assay: Counterscreen for agonists of the human trace amine associated receptor 1 (hTAAR1): Fluorescence-based cell-based high throughput dose response assay to identify hTAAR1 agonist that also desensitize TAAR1 receptor response.; type: functional
T4 sequence (Q96RJ0 whole entry): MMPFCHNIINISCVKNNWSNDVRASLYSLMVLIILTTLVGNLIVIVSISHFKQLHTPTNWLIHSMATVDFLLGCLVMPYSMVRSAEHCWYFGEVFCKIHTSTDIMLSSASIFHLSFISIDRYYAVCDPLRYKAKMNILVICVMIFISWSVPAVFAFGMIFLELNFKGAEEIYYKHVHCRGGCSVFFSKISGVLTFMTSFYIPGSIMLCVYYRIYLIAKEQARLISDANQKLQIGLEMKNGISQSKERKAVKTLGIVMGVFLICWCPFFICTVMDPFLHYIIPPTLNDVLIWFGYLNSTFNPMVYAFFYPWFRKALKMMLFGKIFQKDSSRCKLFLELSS

[15] = target: T4, Trace amine-associated receptor 1; assay: Fluorescence-based cell-based high throughput dose response assay to identify agonists of the human trace amine associated receptor 1 (TAAR1).; type: functional
[16] = target: T5, ATP-dependent translocase ABCB1 (Homo sapiens, UniProt P08183); assay: inhibition of BCRP-mediated JC-1 efflux – Ig-MXP3 cells, flow cytometry, set 2, dose response (AID 504566); type: functional; conditions: read-out: EC50_MICROM_;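 note: flow cytometry median green fluorescence of retained JC-1 dye; potency of efflux pump inhibition measured as rising substrate retention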
[17] = target: T5, ATP-dependent translocase ABCB1; assay: P-gp JC-1 efflux blockade concentration-response – Jurkat-DNR cells, flow cytometry, set 2, dose response (AID 504569); type: functional; conditions: read-out: EC50_MICROM_;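 note: potency of pump inhibitors that raise cellular JC-1 green fluorescence up to the nicardipine level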
[18] = viability of uninfected HEp-2 cells – cell-based, HTS, cytotoxicity control for RSV inhibitor project, dose response (AID 2410); type: functional; conditions: human respiratory syncytial virus
cells [19] = assay: cells
[20] = target: Ras and Rab interactor 1/Tyrosine-protein kinase ABL1 (Homo sapiens, UniProt P00519+Q13671); type: functional;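 note: biochemical TR-FRET dose-response test measuring inhibition of binding between Rin1 and Abl proteins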
HEK293 [21] = assay: cells; conditions: Homo sapiens
HEK293 [22] = assay: cells; conditions: Homo sapiens; remark: listed apart in the source
[23] = target: DNA dC->dU-editing enzyme APOBEC-3G (Homo sapiens, UniProt Q9HC16); type: functional;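 note: Dose-response counterscreen measuring inhibition of APOBEC3G DNA deaminase activity, run while confirming APOBEC3A inhibitors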
[24] = target: DNA dC->dU-editing enzyme APOBEC-3A (Homo sapiens, UniProt P31941); assay: Dose Response confirmation of small molecule APOBEC3A DNA Deaminase Inhibitors via a fluorescence-based single-stranded DNA deaminase assay. [Related pubchem assays (depositor defined):AID493011, AID493024]; type: functional
Beta-lactamase [25] = target: Beta-lactamase (Salmonella choleraesuis (strain SC-B67), UniProt Q5J463)
[26] = target: T6, Voltage-gated N-type calcium channel alpha-1B subunit/Amyloid beta A4 precursor protein-binding family A member 1 (Homo sapiens, UniProt Q00975+Q02410); type: protein assay
Beta-lactamase [27] = target: Beta-lactamase (Pseudomonas aeruginosa, UniProt Q79MP6);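 note: biochemical dose-response test of metallo-beta-lactamase enzyme inhibition, read out by epi-absorbance; purified recombinant IMP-1 metallo-beta-lactamase with nitrocefin as substrate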
[28] = target: T7, Small ubiquitin-related modifier 1 (Homo sapiens, UniProt P63165); assay: SUMO1 protein interaction blockers, potency – biochemical, fluorescence polarization, uHTS hits, dose response (AID 624382); type: functional; conditions: read-out: IC50_Mean
[29] = target: T7, Small ubiquitin-related modifier 1; assay: SUMO1 protein-protein binding blockers, potency – biochemical, FRET, dose response (AID 624383); type: functional; conditions: read-out: IC50_Mean
[30] = target: T6, Voltage-gated N-type calcium channel alpha-1B subunit/Amyloid beta A4 precursor protein-binding family A member 1; type: protein assay; remark: listed apart in the source
Fatty acid synthase [31] = target: T8, Fatty acid synthase (Homo sapiens, UniProt P49327); assay: inhibition of human FAS-TE enzyme activity – biochemical, endpoint fluorescence intensity, uHTS hits, dose response (AID 624327); type: functional;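 note: fluorescence from hydrolysis of an O-methyl fluorescein acyl ester substrate by the enzyme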
Fatty acid synthase [32] = target: T8, Fatty acid synthase; assay: inhibition of human FAS-TE enzyme activity – biochemical, kinetic fluorescence intensity, dose response (AID 624326); type: functional;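 note: rate of fluorescence rise from hydrolysis of a fluorogenic O-methyl fluorescein ester substrate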

Sequence of 5-hydroxytryptamine receptor 2A (P35363 whole entry): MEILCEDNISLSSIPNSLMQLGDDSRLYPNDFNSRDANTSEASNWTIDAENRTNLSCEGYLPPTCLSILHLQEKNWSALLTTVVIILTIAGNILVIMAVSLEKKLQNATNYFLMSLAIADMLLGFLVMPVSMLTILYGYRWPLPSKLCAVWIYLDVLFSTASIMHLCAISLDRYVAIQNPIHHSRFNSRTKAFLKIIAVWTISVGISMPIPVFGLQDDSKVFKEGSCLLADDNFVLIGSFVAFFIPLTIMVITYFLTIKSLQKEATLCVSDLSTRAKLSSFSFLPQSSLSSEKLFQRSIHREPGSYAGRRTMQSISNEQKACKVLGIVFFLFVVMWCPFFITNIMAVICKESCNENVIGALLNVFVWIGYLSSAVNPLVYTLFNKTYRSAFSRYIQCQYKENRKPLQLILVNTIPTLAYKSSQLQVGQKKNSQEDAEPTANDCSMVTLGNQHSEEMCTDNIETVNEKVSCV
T5 sequence (P08183 whole entry): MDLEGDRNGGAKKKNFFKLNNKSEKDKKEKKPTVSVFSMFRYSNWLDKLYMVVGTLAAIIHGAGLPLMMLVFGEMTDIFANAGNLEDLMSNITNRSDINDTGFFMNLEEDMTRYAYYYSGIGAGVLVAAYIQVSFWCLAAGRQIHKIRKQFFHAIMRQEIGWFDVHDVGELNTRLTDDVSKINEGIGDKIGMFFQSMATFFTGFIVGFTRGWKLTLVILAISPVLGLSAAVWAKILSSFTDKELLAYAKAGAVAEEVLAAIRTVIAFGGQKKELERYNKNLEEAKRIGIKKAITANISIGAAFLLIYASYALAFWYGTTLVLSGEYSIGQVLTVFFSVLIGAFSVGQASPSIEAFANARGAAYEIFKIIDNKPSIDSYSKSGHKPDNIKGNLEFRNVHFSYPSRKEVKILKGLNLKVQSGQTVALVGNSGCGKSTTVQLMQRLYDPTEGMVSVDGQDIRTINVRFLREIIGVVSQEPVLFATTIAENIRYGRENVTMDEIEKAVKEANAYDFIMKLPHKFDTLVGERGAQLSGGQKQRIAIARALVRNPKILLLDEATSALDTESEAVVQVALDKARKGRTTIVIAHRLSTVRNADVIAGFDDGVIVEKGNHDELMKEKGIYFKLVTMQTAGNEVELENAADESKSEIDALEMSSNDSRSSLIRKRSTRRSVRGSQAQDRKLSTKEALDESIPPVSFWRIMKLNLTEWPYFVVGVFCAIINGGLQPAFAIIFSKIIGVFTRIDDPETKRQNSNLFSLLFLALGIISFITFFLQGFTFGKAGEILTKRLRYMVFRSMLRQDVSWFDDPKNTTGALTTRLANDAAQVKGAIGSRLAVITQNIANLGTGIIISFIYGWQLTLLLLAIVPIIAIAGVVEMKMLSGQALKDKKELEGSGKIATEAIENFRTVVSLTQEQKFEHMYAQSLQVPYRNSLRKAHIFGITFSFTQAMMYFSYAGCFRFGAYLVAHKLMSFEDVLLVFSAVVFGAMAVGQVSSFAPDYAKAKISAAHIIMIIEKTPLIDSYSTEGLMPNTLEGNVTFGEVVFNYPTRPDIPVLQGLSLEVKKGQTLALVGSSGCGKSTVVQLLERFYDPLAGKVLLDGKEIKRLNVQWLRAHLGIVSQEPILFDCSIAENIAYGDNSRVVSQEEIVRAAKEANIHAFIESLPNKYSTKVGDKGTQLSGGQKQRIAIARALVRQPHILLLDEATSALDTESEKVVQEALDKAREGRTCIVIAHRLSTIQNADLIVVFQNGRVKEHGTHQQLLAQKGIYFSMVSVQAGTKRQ
Sequence of Mu-type opioid receptor (P35372 whole entry): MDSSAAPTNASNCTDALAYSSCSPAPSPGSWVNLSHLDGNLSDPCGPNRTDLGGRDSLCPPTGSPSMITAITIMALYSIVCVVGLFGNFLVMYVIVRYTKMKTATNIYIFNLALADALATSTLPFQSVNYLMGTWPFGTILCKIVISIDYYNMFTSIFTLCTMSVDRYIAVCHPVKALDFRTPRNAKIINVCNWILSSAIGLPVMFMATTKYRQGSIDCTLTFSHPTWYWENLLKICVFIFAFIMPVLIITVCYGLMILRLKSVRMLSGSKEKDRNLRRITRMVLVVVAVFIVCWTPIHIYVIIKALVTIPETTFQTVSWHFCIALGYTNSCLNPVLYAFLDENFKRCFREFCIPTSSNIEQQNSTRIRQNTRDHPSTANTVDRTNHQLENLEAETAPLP
T7 sequence (P63165 whole entry): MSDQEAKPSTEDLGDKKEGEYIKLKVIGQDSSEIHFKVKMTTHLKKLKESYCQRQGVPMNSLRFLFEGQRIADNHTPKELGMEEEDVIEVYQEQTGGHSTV
T8 sequence (P49327 whole entry): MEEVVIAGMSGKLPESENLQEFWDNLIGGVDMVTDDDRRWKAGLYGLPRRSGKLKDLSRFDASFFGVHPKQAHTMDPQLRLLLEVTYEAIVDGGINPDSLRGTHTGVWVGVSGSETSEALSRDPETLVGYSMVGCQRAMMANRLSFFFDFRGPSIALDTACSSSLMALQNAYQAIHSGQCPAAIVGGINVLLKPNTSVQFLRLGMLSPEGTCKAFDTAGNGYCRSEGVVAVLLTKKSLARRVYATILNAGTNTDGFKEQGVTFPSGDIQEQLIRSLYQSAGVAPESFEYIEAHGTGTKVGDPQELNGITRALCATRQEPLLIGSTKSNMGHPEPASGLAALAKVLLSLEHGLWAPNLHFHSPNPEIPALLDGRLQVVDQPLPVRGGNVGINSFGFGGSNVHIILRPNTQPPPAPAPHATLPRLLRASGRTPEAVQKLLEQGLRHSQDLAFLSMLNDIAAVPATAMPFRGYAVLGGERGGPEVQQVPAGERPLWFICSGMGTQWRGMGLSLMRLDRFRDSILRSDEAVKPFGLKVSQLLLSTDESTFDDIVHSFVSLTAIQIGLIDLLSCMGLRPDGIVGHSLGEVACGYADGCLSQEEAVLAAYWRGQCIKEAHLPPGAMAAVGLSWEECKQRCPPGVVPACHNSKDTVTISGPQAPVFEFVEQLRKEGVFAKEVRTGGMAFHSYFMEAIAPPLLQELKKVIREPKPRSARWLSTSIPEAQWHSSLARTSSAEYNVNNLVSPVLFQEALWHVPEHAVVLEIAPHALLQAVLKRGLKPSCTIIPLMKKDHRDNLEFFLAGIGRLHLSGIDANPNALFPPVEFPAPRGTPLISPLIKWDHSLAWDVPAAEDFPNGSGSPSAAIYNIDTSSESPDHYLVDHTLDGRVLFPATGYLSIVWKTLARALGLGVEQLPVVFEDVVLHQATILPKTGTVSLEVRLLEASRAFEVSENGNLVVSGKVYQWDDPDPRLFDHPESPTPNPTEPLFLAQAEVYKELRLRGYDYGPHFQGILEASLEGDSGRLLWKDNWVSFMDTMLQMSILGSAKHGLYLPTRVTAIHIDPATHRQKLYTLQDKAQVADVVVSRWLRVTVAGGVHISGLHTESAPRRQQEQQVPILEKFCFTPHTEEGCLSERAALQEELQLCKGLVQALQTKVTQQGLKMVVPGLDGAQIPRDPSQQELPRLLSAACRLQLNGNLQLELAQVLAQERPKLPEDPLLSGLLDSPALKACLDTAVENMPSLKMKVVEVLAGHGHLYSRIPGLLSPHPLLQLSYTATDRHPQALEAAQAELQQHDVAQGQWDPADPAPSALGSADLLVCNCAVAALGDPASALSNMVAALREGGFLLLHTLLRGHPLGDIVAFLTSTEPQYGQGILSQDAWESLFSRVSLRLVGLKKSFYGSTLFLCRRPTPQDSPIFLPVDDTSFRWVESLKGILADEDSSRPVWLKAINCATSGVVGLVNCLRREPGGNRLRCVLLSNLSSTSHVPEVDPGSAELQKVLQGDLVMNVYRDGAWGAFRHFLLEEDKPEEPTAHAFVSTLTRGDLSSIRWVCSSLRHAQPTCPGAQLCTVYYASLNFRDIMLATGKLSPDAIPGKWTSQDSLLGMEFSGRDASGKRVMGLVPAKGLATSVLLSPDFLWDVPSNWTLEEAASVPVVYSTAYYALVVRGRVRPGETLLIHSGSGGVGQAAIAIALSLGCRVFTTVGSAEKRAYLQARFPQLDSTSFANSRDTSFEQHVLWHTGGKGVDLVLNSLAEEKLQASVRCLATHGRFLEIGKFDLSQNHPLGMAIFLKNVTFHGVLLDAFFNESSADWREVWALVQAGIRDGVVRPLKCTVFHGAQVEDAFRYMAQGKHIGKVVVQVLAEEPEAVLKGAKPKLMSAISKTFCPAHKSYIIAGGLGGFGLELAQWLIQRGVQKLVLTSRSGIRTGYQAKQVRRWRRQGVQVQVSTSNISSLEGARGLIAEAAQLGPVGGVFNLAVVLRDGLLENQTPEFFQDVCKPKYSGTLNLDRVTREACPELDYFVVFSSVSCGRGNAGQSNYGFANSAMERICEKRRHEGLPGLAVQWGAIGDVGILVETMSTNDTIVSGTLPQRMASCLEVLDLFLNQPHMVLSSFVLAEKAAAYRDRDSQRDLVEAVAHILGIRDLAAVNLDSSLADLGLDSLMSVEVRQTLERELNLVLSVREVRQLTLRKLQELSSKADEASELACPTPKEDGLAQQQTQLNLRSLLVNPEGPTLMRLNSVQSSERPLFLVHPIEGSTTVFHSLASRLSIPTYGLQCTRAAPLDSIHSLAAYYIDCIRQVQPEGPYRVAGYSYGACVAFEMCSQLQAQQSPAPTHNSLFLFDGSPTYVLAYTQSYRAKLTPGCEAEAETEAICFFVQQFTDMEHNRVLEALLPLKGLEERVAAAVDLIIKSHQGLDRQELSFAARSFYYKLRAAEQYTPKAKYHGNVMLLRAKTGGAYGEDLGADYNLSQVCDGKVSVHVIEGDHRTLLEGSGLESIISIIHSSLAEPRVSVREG
Sequence of DNA dC->dU-editing enzyme APOBEC-3A (P31941 whole entry): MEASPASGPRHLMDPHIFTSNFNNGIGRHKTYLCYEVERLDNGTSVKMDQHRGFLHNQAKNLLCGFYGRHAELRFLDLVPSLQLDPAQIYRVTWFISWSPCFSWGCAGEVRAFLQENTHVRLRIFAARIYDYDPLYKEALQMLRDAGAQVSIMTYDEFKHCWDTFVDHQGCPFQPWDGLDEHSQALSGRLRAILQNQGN

CCNC(=O)C[C@H]1CC[C@@H]2[C@@H](COc3ccc(NC(=O)Nc4cccc(F)c4)cc3C(=O)N2C)O1
AC50 [1]: 4.35 µM (active)

O=C(Cc1cccs1)NNC(=S)NCc1ccc(Cl)cc1
IC50 [2]: > 122 µM (inactive)

CCOc1ccc2nc(NC3=NC(C)=CC(C)(C)N3)nc(C)c2c1
IC50 [3]: > 20 µM (inactive) | IC50 [4]: 3.25 µM (active) | IC50 [5]: 6.46 µM (active)

CC(C)CC(NC(=O)OCc1ccccc1)C(=O)NC(Cc1ccccc1)C(=O)CCl (stereo not drawn) (Cbz-Leu-Phe-CH2Cl; configuration not given here)
CC50 (Vero [6]): 21.5 µM (active) | IC50 (Vero [7]): 20.5 µM (active)

CN(c1ccc(OCC(=O)Nc2ccccc2C(=O)O)cc1)S(=O)(=O)c1ccc(Cl)cc1
IC50 (Vero [7]): 20.1 µM (active)

O=C(Nc1cccnc1)c1ccc(Oc2ccccc2)cc1
AC50 [1]: 0.751 µM (active)

Nc1c(N(CCC2=CCCCC2)C(=O)COc2ccc([N+](=O)[O-])cc2)c(=O)[nH]c(=O)n1Cc1ccccc1
AC50 [8]: 14.2 µM (active)

COc1ccc(CN2CCN(C(=O)c3ccco3)CC2)c(OC)c1OC
EC50 [9]: 6.39 µM (active) | EC50 (Mu-type opioid receptor): 92.5 µM (inactive)

CN1C(=O)c2cc(NC(=O)c3cccs3)ccc2OC[C@H]2O[C@@H](CC(=O)NCCN3CCCCC3)CC[C@@H]21
AC50 [10]: 4.24 µM (active)

COc1cc(C(=O)NNC(=S)NC(=O)c2ccc3c(c2)OCO3)cc(OC)c1OC
EC50 (Streptococcus): 3.37 µM (active) | IC50 [2]: > 122 µM (inactive) | EC50 [11]: 1.36 µM (active)

CCOC(=O)C(NC(C)=O)(N1CCc2ccccc2C1)C(F)(F)F (configuration not stated)
EC50 (cells [12]): > 29.9 µM (inactive) | IC50 (cells [13]): > 29.9 µM (inactive) | IC50 [14]: 2.8 µM (active) | EC50 [15]: 0.0868 µM (active)

O=C(c1ccccc1)N1CCN(c2cc(-c3ccccc3)nc3cc(-c4cccc(F)c4)nn23)CC1
EC50 [16]: 2.41 µM (active) | EC50 [17]: 5.82 µM (active)

O=C(O)c1cccnc1Nc1ccc(Cl)cc1
CC50 [18]: 14.7 µM (active) | IC50 (cells [19]): 7.51 µM (active) | IC50 (Vero [7]): 17.3 µM (active)

COc1cccc(Nc2nc(NCCO)c3ccccc3n2)c1
EC50 (cells [12]): > 29.9 µM (inactive) | IC50 (cells [13]): > 29.9 µM (inactive) | IC50 [14]: 14 µM (inactive) | EC50 [15]: 4.4 µM (active)

Cc1ccc(S(=O)(=O)N2CCN(C(=O)Cn3cnc4c3c(=O)n(C)c(=O)n4C)CC2)cc1C
IC50 [20]: 21.5 µM (inactive)

Clc1ccc(CN2CCN(c3ccccc3)CC2)cn1
EC50 [9]: 5.22 µM (active) | EC50 (Mu-type opioid receptor): 92.5 µM (inactive)

CC(N)Cc1c[nH]c2ccc(Cl)cc12 (configuration not stated)
EC50 [9]: 1.64 µM (active) | EC50 (Mu-type opioid receptor): 92.5 µM (inactive)

O=C(c1ccncc1)N1CCN(c2cc(-c3ccccc3)nc3cc(-c4cccc(Cl)c4)nn23)CC1
EC50 [16]: 1.19 µM (active) | EC50 [17]: 0.95 µM (active)

CC(C)(C)[S@+]([O-])N1Cc2cc(C(=O)NCc3ccccc3F)nc(-c3cccc(-c4cccnc4)c3)c2[C@@H]1CCO
AC50 [1]: 9.55 µM (active)

O=C(NNC(=S)Nc1ccccc1)c1ccc2ncccc2c1
IC50 [2]: > 122 µM (inactive)

COc1cc(OC)c(-c2nn3c(C4CCCCC4)nnc3s2)cc1OC
EC50 (HEK293 [21]): > 59.6 µM (inactive) | CC50 [18]: 33.1 µM (active) | EC50 (HEK293 [22]): > 59.6 µM (inactive)

CCN1C(=NCCN2CCOCC2)N[C@@H](c2ccccc2)C(C(=O)OC)=C1C
IC50 [23]: 4.54 µM (active) | IC50 [24]: 4.2 µM (active)

CN(C)C(=S)N=c1ssc(=S)n1Cc1cccnc1
EC50 (HEK293 [21]): > 59.6 µM (inactive) | EC50 (HEK293 [22]): > 59.6 µM (inactive)

Cc1ccc(Cn2c(C(C)Nc3nc(-c4ccc(C)cc4)cs3)nc3cc(Cl)c(Cl)cc32)cc1 (configuration not stated)
IC50 (Beta-lactamase [25]): > 59.6 µM (inactive) | IC50 [26]: > 50 µM (inactive) | IC50 (Beta-lactamase [27]): > 59.6 µM (inactive) | IC50 [28]: > 66.6 µM (inactive) | IC50 [29]: 3.52 µM (active) | IC50 [30]: 4.57 µM (active)

CC1(C)CC(=O)C(/C=N\CCc2ccc(O)cc2)=C(O)C1
EC50 (cells [12]): > 29.9 µM (inactive) | IC50 (cells [13]): > 29.9 µM (inactive) | IC50 [14]: 8.81 µM (active) | EC50 [15]: 1.84 µM (active)

O=C(CNc1cc(S(=O)(=O)N2CCCC2)ccc1OCC(F)(F)F)Nc1ccc(SC(F)F)cc1
IC50 (Fatty acid synthase [31]): 6.37 µM (active) | IC50 [4]: 2.54 µM (active) | IC50 (Fatty acid synthase [32]): 2.98 µM (active) | IC50 [5]: 1.85 µM (active)

CCSc1ccccc1C(=O)n1nnc2ccccc21
AC50 [8]: 11.8 µM (active)

O=C(c1ccccc1)N1CCN(c2cc(-c3ccccc3)nc3cc(-c4cccc(Cl)c4)nn23)CC1
EC50 [16]: 1.05 µM (active) and 1.81 µM (active) | EC50 [17]: 2.26 µM (active) and 4 µM (active)
